In PubChem BioAssay (NCI):
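The compound was tested at five concentrations on cells cultured in 96-well plates, with a 48-hour exposure period. GI50 = concentration required for 50% inhibition of growth. TGI: concentration producing complete growth inhibition.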

Key:
Assay in all cases: NCI-60 cell line screen, 48 h
[1] = test system: 786-0 renal
[2] = test system: A498 renal
[3] = test system: A549 NSCLC
[4] = test system: ACHN renal
[5] = test system: BT-549 breast
[6] = test system: CAKI-1 renal
[7] = test system: CCRF-CEM leukemia
[8] = test system: COLO 205 colon
[9] = test system: DU-145 prostate
[10] = test system: EKVX NSCLC
[11] = test system: HCC-2998 colon
[12] = test system: HCT-116 colon
[13] = test system: HCT-15 colon
[14] = test system: HL-60(TB) leukemia
[15] = test system: HOP-62 NSCLC
[16] = test system: HOP-92 NSCLC
[17] = test system: HS 578T breast
[18] = test system: HT29 colon
[19] = test system: IGROV1 ovarian
[20] = test system: K-562 leukemia
[21] = test system: KM12 colon
[22] = test system: LOX IMVI melanoma
[23] = test system: M14 melanoma
[24] = test system: MALME-3M melanoma
[25] = test system: MCF7 breast
[26] = test system: MDA-MB-231 breast
[27] = test system: MDA-MB-435
[28] = test system: MOLT-4 leukemia
[29] = test system: NCI-H226 lung
[30] = test system: NCI-H23 lung
[31] = test system: NCI-H460 lung
[32] = test system: NCI-H522 lung
[33] = test system: NCI/ADR-RES ovarian
[34] = test system: OVCAR-3 ovarian
[35] = test system: OVCAR-4 ovarian
[36] = test system: OVCAR-5 ovarian
[37] = test system: OVCAR-8 ovarian
[38] = test system: PC-3 prostate
[39] = test system: RPMI-8226 leukemia
[40] = test system: RXF 393 renal
[41] = test system: SF-268 CNS
[42] = test system: SF-295 CNS
[43] = test system: SF-539 CNS
[44] = test system: SK-MEL-2 melanoma
[45] = test system: SK-MEL-28 melanoma
[46] = test system: SK-MEL-5 melanoma
[47] = test system: SK-OV-3 ovarian
[48] = test system: SN12C renal
[49] = test system: SNB-19 CNS
[50] = test system: SNB-75 CNS
[51] = test system: SR leukemia
[52] = test system: SW-620 colon
[53] = test system: T-47D breast
[54] = test system: TK-10 renal
[55] = test system: U251 CNS
[56] = test system: UACC-257 melanoma
[57] = test system: UACC-62 melanoma
[58] = test system: UO-31 renal

CC1=C2[C@@H](CC1)[C@]1(C)O[C@@](C(C)C)(C[C@H]1OC(=O)CO)[C@H]2OC(=O)C1CC1c1ccccc1 (stereo partly specified)
GI50 [1]: 15.1 µM
TGI [1]: 32.2 µM
GI50 [2]: 0.24 µM
TGI [2]: 0.943 µM
GI50 [3]: 11.9 µM
TGI [3]: 25.9 µM
GI50 [4]: 3.05 µM
TGI [4]: 20.9 µM
GI50 [5]: 13.6 µM
TGI [5]: 28.7 µM
GI50 [6]: 11.4 µM
TGI [6]: 24 µM
GI50 [7]: 16.2 µM
TGI [7]: 39.1 µM
GI50 [8]: 16.1 µM
TGI [8]: 33 µM
GI50 [9]: 14.6 µM
TGI [9]: 27.9 µM
GI50 [10]: 8.21 µM
TGI [10]: 22.7 µM
GI50 [11]: 13.5 µM
TGI [11]: 29.4 µM
GI50 [12]: 17.7 µM
TGI [12]: 33.2 µM
GI50 [13]: 13 µM
TGI [13]: 27.6 µM
GI50 [14]: 15 µM
TGI [14]: 38 µM
GI50 [15]: 15.2 µM
TGI [15]: 29.7 µM
GI50 [16]: 11.8 µM
TGI [16]: 24.6 µM
GI50 [17]: 0.0681 µM
TGI [17]: 2.38 µM
GI50 [18]: 13.5 µM
TGI [18]: 28.3 µM
GI50 [19]: 19.1 µM
TGI [19]: 46.7 µM
GI50 [20]: 12.2 µM
TGI [20]: 36.5 µM
GI50 [21]: 12.9 µM
TGI [21]: 27.4 µM
GI50 [22]: 14.4 µM
TGI [22]: 31.1 µM
GI50 [23]: 12.8 µM
TGI [23]: 29.3 µM
GI50 [24]: 16.5 µM
TGI [24]: 33.4 µM
GI50 [25]: 8.98 µM
TGI [25]: 27.8 µM
GI50 [26]: 15.5 µM
TGI [26]: 33.7 µM
GI50 [27]: 14.1 µM
TGI [27]: 27.3 µM
GI50 [28]: 9.73 µM
TGI [28]: 28.8 µM
GI50 [29]: 16.2 µM
TGI [29]: 35.7 µM
GI50 [30]: 14.2 µM
TGI [30]: 32.4 µM
GI50 [31]: 14.5 µM
TGI [31]: 32.2 µM
GI50 [32]: 12.7 µM
TGI [32]: 28 µM
GI50 [33]: 8.95 µM
TGI [33]: 30.8 µM
GI50 [34]: 13 µM
TGI [34]: 26.4 µM
GI50 [35]: 13 µM
TGI [35]: 26.9 µM
GI50 [36]: 20.3 µM
TGI [36]: 40.4 µM
GI50 [37]: 12.9 µM
TGI [37]: 35.6 µM
GI50 [38]: 7.36 µM
TGI [38]: 21.6 µM
GI50 [39]: 12.8 µM
TGI [39]: 42.6 µM
GI50 [40]: 0.405 µM
TGI [40]: 17.4 µM
GI50 [41]: 13 µM
TGI [41]: 27.9 µM
GI50 [42]: 12 µM
TGI [42]: 24.7 µM
GI50 [43]: 17.1 µM
TGI [43]: 33.8 µM
GI50 [44]: 15.5 µM
TGI [44]: 32.3 µM
GI50 [45]: 16.8 µM
TGI [45]: 34.6 µM
GI50 [46]: 15.2 µM
TGI [46]: 28.8 µM
GI50 [47]: 16.4 µM
TGI [47]: 30.7 µM
GI50 [48]: 9.36 µM
TGI [48]: 27.6 µM
GI50 [49]: 16.7 µM
TGI [49]: 34.6 µM
GI50 [50]: 13.7 µM
TGI [50]: 30.4 µM
GI50 [51]: 10.9 µM
TGI [51]: 34.9 µM
GI50 [52]: 16.4 µM
TGI [52]: 32.6 µM
GI50 [53]: 4.16 µM
TGI [53]: 21.6 µM
GI50 [54]: 16.6 µM
TGI [54]: 31.6 µM
GI50 [55]: 14.8 µM
TGI [55]: 28.6 µM
GI50 [56]: 17.3 µM
TGI [56]: 32.4 µM
GI50 [57]: 10.9 µM
TGI [57]: 25.6 µM
GI50 [58]: 9.49 µM
TGI [58]: 25.1 µM

O=C(Nc1cccc(O)c1)c1ccc(NC2=C(Cl)C(=O)N(Cc3ccc(Cl)cc3Cl)C2=O)cc1
GI50 [1]: 7.2 µM
TGI [1]: > 57 µM
GI50 [2]: 15 µM
TGI [2]: 29.3 µM
GI50 [3]: 15.7 µM
TGI [3]: 31.7 µM
GI50 [4]: 1.75 µM
TGI [4]: 3.21 µM
GI50 [5]: 5.7 µM
TGI [5]: 12.2 µM
GI50 [6]: 1.92 µM
TGI [6]: 3.58 µM
GI50 [7]: 0.244 µM
TGI [7]: 0.95 µM
GI50 [8]: 1.9 µM
TGI [8]: 4.18 µM
GI50 [9]: 6.15 µM
TGI [9]: 11.6 µM
GI50 [10]: 6.74 µM
TGI [10]: 13.6 µM
GI50 [11]: 18.9 µM
TGI [11]: 33.8 µM
GI50 [12]: 6.89 µM
TGI [12]: > 56.4 µM
GI50 [13]: 2.51 µM
TGI [13]: 6.13 µM
TGI [14]: 3.75 µM
GI50 [15]: 8.44 µM
TGI [15]: > 58.5 µM
GI50 [16]: 1.86 µM
TGI [16]: 4.16 µM
GI50 [17]: 3.24 µM
TGI [17]: 11.9 µM
GI50 [18]: 2.75 µM
TGI [18]: > 22.1 µM
GI50 [19]: 1.7 µM
TGI [19]: 3.3 µM
GI50 [20]: 1.08 µM
TGI [20]: 3.96 µM
GI50 [21]: 1.84 µM
TGI [21]: 3.66 µM
GI50 [22]: 1.62 µM
TGI [22]: 3.16 µM
GI50 [23]: 8.29 µM
TGI [23]: > 55.9 µM
GI50 [24]: 2.23 µM
TGI [24]: 5.75 µM
GI50 [25]: 1.83 µM
TGI [25]: 4.29 µM
GI50 [26]: 1.85 µM
TGI [26]: 4.05 µM
GI50 [27]: 1.89 µM
TGI [27]: 3.63 µM
GI50 [28]: 0.383 µM
TGI [28]: 2.17 µM
GI50 [29]: 6.78 µM
TGI [29]: 26.7 µM
GI50 [30]: 19.6 µM
TGI [30]: 36.1 µM
GI50 [31]: 2.86 µM
TGI [31]: 8.91 µM
GI50 [32]: 1.94 µM
TGI [32]: 4.24 µM
GI50 [33]: 21.6 µM
TGI [33]: 48.1 µM
GI50 [34]: 1.66 µM
TGI [34]: 3.45 µM
GI50 [35]: 5.43 µM
TGI [35]: 12.7 µM
GI50 [36]: 18.8 µM
TGI [36]: 34.1 µM
GI50 [37]: 1.95 µM
TGI [37]: 4.12 µM
GI50 [38]: 1.75 µM
TGI [38]: 4.28 µM
GI50 [39]: 0.749 µM
TGI [39]: 2.52 µM
GI50 [40]: 2.31 µM
TGI [40]: 4.72 µM
GI50 [41]: 2.01 µM
TGI [41]: 4.75 µM
GI50 [42]: 1.95 µM
TGI [42]: 4.07 µM
GI50 [43]: 6.32 µM
TGI [43]: 11.8 µM
GI50 [44]: 5.29 µM
TGI [44]: 14.5 µM
GI50 [45]: 3.41 µM
TGI [45]: 10.1 µM
GI50 [46]: 4.71 µM
TGI [46]: 9.73 µM
GI50 [47]: 4.6 µM
TGI [47]: 14.7 µM
GI50 [48]: 1.99 µM
TGI [48]: 4.09 µM
GI50 [49]: 2.69 µM
TGI [49]: 7.68 µM
GI50 [50]: 2.77 µM
TGI [50]: 11.2 µM
GI50 [51]: 0.168 µM
TGI [51]: 0.411 µM
GI50 [52]: 2.21 µM
TGI [52]: 6.42 µM
GI50 [53]: 2.01 µM
TGI [53]: > 21.2 µM
GI50 [54]: 2.07 µM
TGI [54]: 4.82 µM
GI50 [55]: 1.76 µM
TGI [55]: 3.23 µM
GI50 [56]: 7.96 µM
TGI [56]: 21.6 µM
GI50 [57]: 5.31 µM
TGI [57]: 9.96 µM
GI50 [58]: 1.91 µM
TGI [58]: 3.75 µM
